Key:
Format in all cases: in vivo
[1] = tested on: barnyardgrass (Echinochloa crus-galli); test: Test A pre-/postemergence: barnyardgrass; details: for Barnyardgrass plant response rating: Postemergence; for Plant response rating, Barnyardgrass: Preemergence
Summary of the method: (§1)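 Injury was scored visually on a 0 (no effect) to 100 (complete control) scale versus untreated controls roughly ten days after treatment in the greenhouse. Compounds, formulated in surfactant-containing non-phytotoxic solvent, went on as soil-directed preemergence spray or postemergence to one- to two-leaf plants 2–10 cm tall.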

[2] = tested on: crabgrass, large (large crabgrass, Digitaria sanguinalis); test: Test A pre-/postemergence: crabgrass, large; details: for Crabgrass, Large plant response rating: Postemergence; for Plant response rating, Crabgrass, Large: Preemergence
Summary of the method: as §1

[3] = tested on: pigweed (Amaranthus retroflexus); test: Test A pre-/postemergence: pigweed
Summary of the method: as §1

[4] = tested on: wheat (Triticum aestivum); test: Test A pre-/postemergence: wheat
Summary of the method: as §1

[5] = tested on: blackgrass (Alopecurus myosuroides); test: Test C pre-/postemergence: blackgrass
Summary of the method: (§2)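 Visual injury scored 0–100 (100 = complete control) against untreated controls after 13–15 greenhouse days. Surfactant-containing solvent formulations applied either to soil after sowing (loam/sand) or over 1- to 4-leaf plants, 2–18 cm tall.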

[6] = tested on: corn (Zea mays); test: Test C pre-/postemergence: corn
Summary of the method: as §2

[7] = tested on: large crabgrass (Digitaria sanguinalis); test: Test C pre-/postemergence: large crabgrass
Summary of the method: as §2

[8] = tested on: foxtail, giant (giant foxtail, Setaria faberii); test: Test C pre-/postemergence: foxtail, giant
Summary of the method: as §2

[9] = tested on: lambsquarters (Chenopodium album); test: Test C pre-/postemergence: lambsquarters
Summary of the method: as §2

[10] = tested on: morningglory (Ipomoea coccinea); test: Test C pre-/postemergence: morningglory
Description: Seeds of plant species selected from blackgrass (Alopecurus myosuroides), bromegrass, downy (downy bromegrass, Bromus tectorum), foxtail, green (green foxtail, Setaria viridis), ryegrass, Italian (Italian ryegrass, Lolium multiflorum), winter wheat (Triticum aestivum), wild oat (Avena fatua), galium (catchweed bedstraw, Galium aparine), bermudagrass (Cynodon dactylon), surinam grass (Brachiaria decumbens), cocklebur (common cocklebur, Xanthium strumarium), corn (Zea mays), large crabgrass (Digitaria sanguinalis), woolly cupgrass (Eriochloa villosa), foxtail, giant (giant foxtail, Setaria faberii), goosegrass (Eleusine indica), johnsongrass (Sorghum halepense), kochia (Kochia scoparia), lambsquarters (Chenopodium album), morningglory (Ipomoea coccinea), nightshade (eastern black nightshade, Solanum ptycanthum), nutsedge, yellow (yellow nutsedge, Cyperus esculentus), pigweed (Amaranthus retroflexus), ragweed (common ragweed, Ambrosia elation), soybean (Glycine max), common (oilseed) sunflower (Helianthus annuus), Russian thistle (Salsola kali) and velvetleaf (Abutilon theophrasti) were planted into a blend of loam soil and sand and treated preemergence with test chemicals formulated in a non-phytotoxic solvent mixture which included a surfactant.
At the same time, plants selected from these crop and weed species and also barley (winter barley, Hordeum vulgare), canarygrass (Phalaris minor), chickweed (common chickweed, Stellaria media) windgrass (Apera spica-venti) and deadnettle (henbit deadnettle, Lamium amplexicaule) were planted in pots containing Redi-Earth® planting medium (Scotts Company, 14111 Scottslawn Road, Marysville, Ohio 43041) comprising spaghnum peat moss, vermiculite, wetting agent and starter nutrients and treated with postemergence applications of test chemicals formulated in the same manner. Plants ranged in height from 2 to 18 cm (1- to 4-leaf stage) for postemergence treatments.
Treated plants and controls were maintained in a greenhouse for 13 to 15 days, after which time all species were compared to controls and visually evaluated. Plant response ratings, summarized in Table C, are based on a scale of 0 to 100 where 0 is no effect and 100 is complete control. A dash (-) response means no test result.

[11] = tested on: nutsedge, yellow (yellow nutsedge, Cyperus esculentus); test: Test C pre-/postemergence: nutsedge, yellow
Summary of the method: as §2

[12] = 125 g ai/ha, 0 to 100 scale, 0 is no effect, 100 is complete control
[13] = 500 g ai/ha, visual rating on 0 to 100 scale (0 no effect, 100 complete control), approximately ten days
[14] = 125 g ai/ha, 0 to 100 scale where 0 is no effect and 100 is complete control
[15] = 500 g ai/ha, 0 to 100 scale (0 no effect, 100 complete control)
[16] = Postemergence, 125 g ai/ha, 0 to 100 scale, 0 is no effect, 100 is complete control
[17] = Postemergence, 500 g ai/ha, visual rating on 0 to 100 scale (0 no effect, 100 complete control), approximately ten days
[18] = Preemergence, 125 g ai/ha, 0 to 100 scale where 0 is no effect and 100 is complete control
[19] = Preemergence, 500 g ai/ha, 0 to 100 scale (0 no effect, 100 complete control)
[20] = Postemergence, 31 g ai/ha, scale 0 to 100 (0 no effect, 100 complete control)
[21] = Postemergence, 62 g ai/ha, scale 0 to 100 (0 no effect, 100 complete control)
[22] = Postemergence, 125 g ai/ha, scale 0 to 100, 0 no effect, 100 complete control
[23] = Postemergence, 250 g ai/ha, scale 0 to 100
[24] = Preemergence, 31 g ai/ha, scale of 0 to 100, 0 is no effect, 100 is complete control
[25] = Preemergence, 62 g ai/ha, scale of 0 to 100, 0 is no effect, 100 is complete control
[26] = Preemergence, 125 g ai/ha, scale 0 to 100, 0 no effect, 100 complete control
[27] = Preemergence, 250 g ai/ha, scale 0 to 100, 0 no effect, 100 complete control

Compound: COc1nn(-c2cccc(F)c2)nc1Cc1ccnc(C(F)(F)F)c1 [Compound 139]
- Barnyardgrass plant response rating [1, 12]: 90
- Barnyardgrass plant response rating [1, 13]: 100
- Plant response rating, Barnyardgrass [1, 14]: 80
- Plant response rating, Barnyardgrass [1, 15]: 100
- Crabgrass, Large plant response rating [2, 12]: 90
- Crabgrass, Large plant response rating [2, 13]: 90
- Plant response rating, Crabgrass, Large [2, 14]: 100
- Plant response rating, Crabgrass, Large [2, 15]: 100
- Plant response rating, Pigweed [3, 16]: 100
- Pigweed plant response rating [3, 17]: 100
- Plant response rating, Pigweed [3, 18]: 100
- Plant response rating, Pigweed [3, 19]: 100
- Plant response rating, Wheat [4, 16]: 30
- Wheat plant response rating [4, 17]: 40
- Plant response rating, Wheat [4, 18]: 10
- Plant response rating, Wheat [4, 19]: 50
- Plant response rating, Blackgrass [5, 20]: 35
- Plant response rating, Blackgrass [5, 21]: 40
- Plant response rating, Blackgrass [5, 22]: 70
- Plant response rating, Blackgrass [5, 23]: 70
- Plant response rating, Blackgrass [5, 24]: 45
- Plant response rating, Blackgrass [5, 25]: 90
- Plant response rating, Blackgrass [5, 26]: 90
- Plant response rating, Blackgrass [5, 27]: 90
- Plant response rating, Corn [6, 21]: 25
- Plant response rating, Corn [6, 22]: 55
- Plant response rating, Corn [6, 23]: 60
- Plant response rating, Corn [6, 24]: 0
- Plant response rating, Corn [6, 25]: 0
- Plant response rating, Corn [6, 26]: 10
- Plant response rating, Corn [6, 27]: 30
- Plant response rating, Crabgrass, Large [7, 20]: 40
- Plant response rating, Crabgrass, Large [7, 21]: 45
- Plant response rating, Crabgrass, Large [7, 22]: 55
- Plant response rating, Crabgrass, Large [7, 23]: 80
- Plant response rating, Crabgrass, Large [7, 24]: 100
- Plant response rating, Crabgrass, Large [7, 25]: 100
- Plant response rating, Crabgrass, Large [7, 26]: 100
- Plant response rating, Crabgrass, Large [7, 27]: 100
- Plant response rating, Foxtail, Giant [8, 20]: 15
- Plant response rating, Foxtail, Giant [8, 21]: 30
- Plant response rating, Foxtail, Giant [8, 22]: 40
- Plant response rating, Foxtail, Giant [8, 23]: 75
- Plant response rating, Foxtail, Giant [8, 24]: 95
- Plant response rating, Foxtail, Giant [8, 25]: 100
- Plant response rating, Foxtail, Giant [8, 26]: 100
- Plant response rating, Foxtail, Giant [8, 27]: 100
- Plant response rating, Lambsquarters [9, 20]: 90
- Plant response rating, Lambsquarters [9, 21]: 95
- Plant response rating, Lambsquarters [9, 22]: 95
- Plant response rating, Lambsquarters [9, 23]: 98
- Plant response rating, Lambsquarters [9, 24]: 60
- Plant response rating, Lambsquarters [9, 25]: 70
- Plant response rating, Lambsquarters [9, 26]: 85
- Plant response rating, Lambsquarters [9, 27]: 90
- Plant response rating, Morningglory [10, 20]: 55
- Plant response rating, Morningglory [10, 21]: 60
- Plant response rating, Morningglory [10, 22]: 60
- Plant response rating, Morningglory [10, 23]: 70
- Plant response rating, Morningglory [10, 24]: 15
- Plant response rating, Morningglory [10, 25]: 15
- Plant response rating, Morningglory [10, 26]: 35
- Plant response rating, Morningglory [10, 27]: 55
- Plant response rating, Nutsedge, Yellow [11, 20]: 10
- Plant response rating, Nutsedge, Yellow [11, 21]: 10
- Plant response rating, Nutsedge, Yellow [11, 22]: 10
- Plant response rating, Nutsedge, Yellow [11, 23]: 25
- Plant response rating, Nutsedge, Yellow [11, 24]: 0
- Plant response rating, Nutsedge, Yellow [11, 25]: 0
- Plant response rating, Nutsedge, Yellow [11, 26]: 0
- Plant response rating, Nutsedge, Yellow [11, 27]: 5

Source: US9302999B2, “Substituted triazoles as herbicides” (E. I. DU PONT DE NEMOURS AND COMPANY, priority 2012, dated 2016)
